Here are results for eight compounds from patent US20040096481A1, “Pet food compositions having electrostatically charged ingredient” (priority 2002, published 2004).

The test is described as follows: Effect of negatively charged amino acid solutions on integrity of cat hair (scan microscope). The following applies: 0.40 g cat hair in 100 g solution, 100° F., 24 hours, 810× magnification; for degree of hair damage, 0.125% solution: 0.125% amino acid solution diluted from 1.0% solution adjusted to pH 11.3. How it is done: In this example, various negatively charged amino acid solutions were prepared for testing on cat hair to determine how the solution affected the integrity of the hair. First, a 1.0% amino acid solution was prepared by mixing 5.0 g amino acid with 495 g of water. The resulting pH value of each amino acid solution at this point differed, based largely upon the different pK values for each amino acid. A sufficient quantity of sodium hydroxide solution (50.0%) was added to the 1.0% amino acid solution to adjust the pH to 11.3. Weaker amino acid solutions (0.5%, 0.25%, and 0.125%) were subsequently prepared by dilution of the 1.0% solution.
Approximately 0.40 g of cat hair were mixed with 100 g samples of each respective amino acid solution. The cat hair and amino acid solution were kept at 100° F. for 24 hours. Photographs of the cat hairs were taken with a Topcon Technology Company Model ISI-X408 electrical scan microscope at 810× magnification and the degree of hair damage and loss of identifying characteristics was noted.

Each structure is given as a SMILES string.

In the case of `CSCCC(N)C(=O)O` (racemic) [DL-methionine], the “degree of hair damage, 0.125% solution” value is listed as “No damage”.
Still for that read-out and setting: then `C[C@H](N)C(=O)O` [Alanine], with “Cuticle removed”; and `N[C@@H](CC(=O)O)C(=O)O` [Aspartic acid], with “Cuticle removed”; and `N[C@@H](CS)C(=O)O` [Cysteine], with “No damage”.
Turning to `N[C@@H](CCC(=O)O)C(=O)O` [Glutamic acid], the “degree of hair damage, 0.125% solution” value is reported as “Cuticle removed”.
Take `NCC(=O)O` [Glycine]: the “degree of hair damage, 0.125% solution” value was “Cuticle removed”. The “degree of hair damage, 0.125% solution” value (listed as glycine) was “portions of the cuticle layer have been removed thereby exposing the inner cortex layer”. Under “0.25% amino acid solution diluted from 1.0% solution adjusted to pH 11.3”, the “degree of hair damage, 0.25% solution” value is “cuticle 14 has separated thereby forming a channel and exposing the hair cortex”. The “degree of hair damage, 0.5% solution” value (0.5% amino acid solution diluted from 1.0% solution adjusted to pH 11.3) is “Portions of the hair cortex 18 have been completely dissolved”. In addition, the “degree of hair damage, 1.0% solution” value (1.0% amino acid solution adjusted to pH 11.3) is given as “cuticle has been removed thereby exposing the hair cortex”.
Consider `NCCCC[C@H](N)C(=O)O` [Lysine], for which the “degree of hair damage, 0.125% solution” value is “No damage”.
`O=C(O)[C@@H]1CCCN1` [Proline]: the “degree of hair damage, 0.125% solution” value is listed as “Cuticle removed”.
